# Where two headings read alike, the source gives them in different places.
# Key:
# NF-κB = NF-κB assay: THP1-NF-κB-LUC cells, LPS-stimulated secreted luciferase; format: cell-based; conditions: THP1-NF-κB-LUC cells, read-out: IC50 (NF-κB assay)
# Procedure, shortened: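 THP1-NF-κB-LUC cells (25k/well) were pretreated with compounds for 2 h, then stimulated with LPS (10 ng/mL) for 18 h. Secreted luciferase was measured and normalized to vehicle, and IC50 was fitted from the concentration series.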
# TNF release = test: TNF assay: TNF release from LPS-stimulated human PBMCs (TNF ELISA); format: cell-based; conditions: PBMC, read-out: IC50 (TNF assay)
# Procedure, shortened: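 TNF ELISA on supernatants read-out; cells were 10k human PBMCs/well given LPS at 10 ng/mL for 18 h after a 2 h compound pre-incubation across a concentration series, with IC50 derived for suppression of TNF secretion.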
# [1] = compounds 2 hours before LPS (10 ng/mL) for 18 hours, secreted luciferase
# [2] = human PBMCs, compounds 2 hours before LPS (10 ng/ml) for 18 hours, supernatant TNF ELISA
# [3] = LPS-stimulated human PBMCs, TNF ELISA
Structure (SMILES),IC50 (NF-κB; [1]) [µM],IC50 (TNF release; [2]) [µM],IC50 (NF-κB; LPS-stimulated) [µM],IC50 (TNF release; [3]) [µM]
CC1Oc2cc(S(=O)(=O)Nc3ccc(Cl)cc3)c(Cl)cc2NC1=O (centres unmarked) [BC19696],0.1 to 1,> 10,–,–
CCc1nnc(-c2ccc3nc(-c4ccc(F)cc4)c(-c4ccc(F)cc4)nc3c2)o1 [BC19246],–,–,1 to 10,> 10
Cc1ccc(-c2nc3ccc(S(=O)(=O)NCCCN4CCN(C)CC4)cc3nc2-c2ccc(C)cc2)cc1 [BC19561],–,–,0.1 to 1,> 10
CCc1ccc(NS(=O)(=O)c2cc3c(cc2Br)NC(=O)CO3)cc1 [BC19138],< 0.1,> 10,–,–
CC(C)[S+]([O-])c1oc(-c2cccc(F)c2)nc1S(=O)(=O)c1ccc(Cl)cc1 (centres unmarked) [BC19346],–,–,< 0.1,< 0.1
CC1Oc2cc(S(=O)(=O)Nc3ccc(F)cc3Cl)c(Br)cc2N(C)C1=O (centres unmarked) [BC19907],> 10,> 10,–,–
CCCn1cc(-c2cnc3nc(-c4ccc(F)cc4)c(-c4ccc(F)cc4)nc3c2)nn1 [BC19402],–,–,< 0.1,> 10
O=C1COc2c(cc(Br)cc2S(=O)(=O)NCc2ccc(F)cc2F)N1 [BC19386],> 10,> 10,–,–
O=S(=O)(c1ccccc1)c1cnccc1O [BC19461],> 10,> 10,–,–
CC(=O)N1CCC(C(=O)Nc2ccc3nc(-c4ccc(F)cc4)c(-c4ccc(F)cc4)nc3c2)CC1 [BC19310],–,–,< 0.1,> 10
CCC1Oc2c(cc(Br)cc2S(=O)(=O)Nc2ccccc2)N(C)C1=O (centres unmarked) [BC19927],< 0.1,1 to 10,–,–
C=CC(=O)Nc1ccc2nc(-c3ccc(F)cc3)c(-c3ccc(F)cc3)nc2c1 [BC19313],–,–,0.1 to 1,1 to 10
CCc1ccc(NS(=O)(=O)c2cc(S(=O)(=O)CC)cc3c2OCC(=O)N3)cc1 [BC19492],< 0.1,> 10,–,–
CC1Oc2cc(S(=O)(=O)Nc3ccc(C#N)cc3)c(Cl)cc2NC1=O (centres unmarked) [BC19729],0.1 to 1,> 10,–,–
COCCS(=O)(=O)c1sc(-c2cccc(F)c2)nc1S(=O)(=O)c1ccc(F)cc1 [BC19587],–,–,1 to 10,1 to 10
Cc1nnc(-c2ccc3nc(C(F)(F)F)c(-c4ccc(F)cc4)nc3c2)o1 [BC19151],–,–,> 10,> 10
N#Cc1ccc2nc(-c3cccs3)c(-c3ccc(F)cc3)nc2c1 [BC19157],–,–,> 10,> 10

Structure (SMILES),IC50 (NF-κB; [1]) [µM],IC50 (TNF release; [2]) [µM],IC50 (NF-κB; LPS-stimulated) [µM],IC50 (TNF release; [3]) [µM]
O=C1CCOc2cc(S(=O)(=O)Nc3ccc(Cl)cc3)c(Br)cc2N1 [BC19656],–,–,1 to 10,> 10
COCCCNS(=O)(=O)c1ccc2nc(-c3ccc(F)cc3)c(-c3ccc(F)cc3)nc2c1 [BC19554],–,–,< 0.1,> 10
Cc1ccc(NS(=O)(=O)c2cc3c(cc2Br)NC(=O)CCO3)cc1 [BC19661],–,–,> 10,> 10
COc1ccc(NS(=O)(=O)c2cc3c(cc2Br)NC(=O)CO3)cc1Cl [BC19163],> 10,> 10,–,–
Cc1ccc(S(=O)(=O)c2nc(S(=O)(=O)C(C)C)sc2S(=O)(=O)C(C)C)cc1 [BC19543],–,–,0.1 to 1,< 0.1
CCCS(=O)(=O)c1sc(-c2ccc(Cl)cc2)nc1S(=O)(=O)c1ccc(F)cc1 [BC19536],–,–,1 to 10,0.1 to 1
CC1Oc2c(cc(Br)cc2S(=O)(=O)NCc2ccc(C(F)(F)F)cc2)NC1=O (centres unmarked) [BC19365],1 to 10,> 10,–,–
CC1Oc2c(cc(Br)cc2S(=O)(=O)Nc2ccc(F)cc2F)N(C)C1=O (centres unmarked) [BC19798],< 0.1,1 to 10,–,–
CN1CCN(C(=O)c2ccc3nc(-c4ccc(F)cc4)c(-c4ccc(OC(F)(F)F)cc4)nc3c2)CC1 [BC19399],–,–,> 10,> 10
O=c1c(S(=O)(=O)c2ccc(F)c(F)c2)c[nH]c2ccc(Cl)nc12 [BC19122],> 10,> 10,–,–
CC1Nc2cc(S(=O)(=O)N3CCCC3)ccc2NC1=O (centres unmarked) [BC19235],–,–,> 10,> 10
CCC1Oc2cc(S(=O)(=O)Nc3ccc(F)cc3F)c(Br)cc2N(C)C1=O (centres unmarked) [BC19914],0.1 to 1,> 10,–,–
Fc1ccc(-c2nc3ccc(-c4ccncc4)cc3nc2-c2ccc(F)cc2)cc1 [BC19245],–,–,1 to 10,> 10
CCC[S+]([O-])c1oc(-c2ccccc2)nc1S(=O)(=O)c1cccc(F)c1 (centres unmarked) [BC19268],–,–,0.1 to 1,< 0.1
NC(=O)c1ccc2nc(-c3cccs3)c(-c3ccc(F)cc3)nc2c1 [BC19155],–,–,0.1 to 1,1 to 10
Cc1ccc(NS(=O)(=O)c2cc(Br)cc3c2OC(C)C(=O)N3C)cc1 (centres unmarked) [BC19906],< 0.1,1 to 10,–,–
Cc1ccc(NS(=O)(=O)c2cc(Br)cc3c2OCCNC3=O)cc1Cl [BC19607],–,–,0.1 to 1,> 10
